Literature values in patent US20150182574A1, “COMPOSITIONS AND METHODS FOR ENHANCING MOBILIZATION AND PROLIFERATION OF BLASTOMERE-LIKE STEM CELLS” (Stemtech International, Inc., priority 2012, published 2015).
Each block holds one molecule with its values, some of them ahead of it.

Columns and labels:
[1] = temperature and pH dependent
HSCs = settings: intravenous injection
VSELs = settings: in vivo

stability in aqueous solutions [1]: readily degrade in aqueous solutions
Molecule: OC[C@H]1O[C@@H](Oc2c(O)cc(O)cc2C=Cc2ccc(O)cc2)[C@H](O)[C@@H](O)[C@@H]1O [2,3,5,4′-tetrahydroxystilbene-2-O-β-d-glycoside]

Molecule: Fucoidan
egress of HSCs from bone marrow into the peripheral blood stream (HSCs): promote the egress of HSCs

B1: G-CSF: granulocyte colony-stimulating factor, mobilization agent (protein, UniProt P09919 31-207, looked up)
Granulocyte …: TPLGPASSLPQSFLLKCLEQVRKIQGDGAALQEKLVSECATYKLCHPEELVLLGHSLGIPWAPLSSCPSQALQLAGCLSQLHSGLFLYQGLLQALEGISPELGPTLDTLQLDVADFATTIWQQMEELGMAPALQPTQGAMPAFASAFQRRAGGVLVASHLQSFLEVSYRVLRHLAQP
numbers of VSELs in peripheral blood (VSELs): increase numbers of VSELs in peripheral blood
